The record followed here is patent US9403756B2, “N-phenyl anthranilic acid derivatives and uses thereof” (Ramot at Tel-Aviv University Ltd., priority 2007, dated 2016).

Common to all, as to format: cell-based
The target in one assay is T1, Kv 2.1 (Homo sapiens, UniProt Q14721).
T1 construct: expressed in transfected cells; host or cells: Xenopus oocytes
In words: Kv channel selectivity, Xenopus oocytes: Kv2.1. The settings on record: 25 μM, +30 mV. The protocol: (§1) Voltage-clamp measurements in Xenopus oocytes were performed as previously described.
(§2) The selectivity of NH29 on other relevant Kv channels expressed in Xenopus oocytes was also studied, and the results are summarized in Table 3 below. The specificity of NH29 at 25 μM and 50 μM towards various Kv channels was tested in Xenopus oocytes, except for Kv1.2 which was checked in transfected CHO cells. The current amplitude of the various Kv channels was tested at the indicated voltages and the effect of the drugs was expressed as fold of the control amplitude measured under the same conditions in the absence of the drug. The data in Table 3 are expressed as mean±SEM of 5-7 separate experiments.

A further assay deals with T2, Kv 4.3 (Homo sapiens, UniProt Q9UK17).
T2 construct: expressed in transfected cells; host or cells: Xenopus oocytes
Put plainly: Kv channel selectivity, Xenopus oocytes: Kv4.3. The settings on record: 25 μM, +30 mV. The protocol:
as §1, §2

Another assay has as its target T3, Kv7.3 mutant A315T (Homo sapiens, UniProt O43525, A315T).
T3 construct: expressed in transfected cells
In words: Activation of Kv7.3 mutant A315T. From the text:
Among the Kv7 channel family, NH29 appeared to act as an opener of Kv7.2 but not of Kv7.1 and Kv7.4.

Assay [1] concerns the target T4, TRPV1 channels in Dorsal Root Ganglions (DRG) (Rattus norvegicus, UniProt O35433).
T4 construct: endogenous in cells; host or cells: primary rat dorsal root ganglion neurons
Put plainly: TRPV1 currents in DRG neurons activated by capsaicin. The settings on record: 5 μM; 0.5 μM capsaicin; reversible. The protocol:
FIG. 14 presents the inhibitory effect of NH29, an exemplary compound according to some embodiments of the present invention, on TRPV1 channels in Dorsal Root Ganglions (DRG).
For dorsal root ganglion (DRG) neuronal cultures, ganglia were dissected from 2-5 day-old Sprague-Dawley rats killed by decapitation. DRGs were placed in Hank's balanced saline solution (HBSS) and prepared by enzymatic dissociation. Briefly, after 30 minutes incubation in 5 mg/ml dispase, 2 mg/ml collagenase type 1A and 0.1 mg/ml DNase (Invitrogen/Gibco, Carlsbad, Calif.) in Ca^2+ and Mg^2+-free HBSS, the ganglia were mechanically triturated with a fire-polished glass Pasteur pipette. The ganglia were then centrifuged for 5 minutes at 80×g and resuspended in DMEM supplemented with 2 mM L-glutamine, 16.5 mM NaHCO3, 6 g/l glucose, 5 ml penicillin/streptomycin and 10% fetal calf serum.
For electrophysiological recording, dissociated neurons were plated on 13 mm glass coverslips, previously coated with poly-D-lysine (1 mg/ml) and laminin (10 μg/ml) and used at 1-2 days in culture.

For a further assay, the target named is T5, TRPV6 channel (Homo sapiens, UniProt Q9H1D0).
T5 construct: expressed in transfected cells; host or cells: CHO cells
In words: TRPV6 currents in transfected CHO cells. The settings on record: 25 μM NH29; −80 mV to 100 mV. The protocol: FIGS. 15A-C present the lack of effect of NH29, an exemplary compound according to some embodiments of the present invention, on TRPV6 channel. FIG. 15A presents superimposed representative traces recorded from a CHO cell transfected with TRPV6 before (marked control) during (marked 165s) and after (marked wash) external application of 25 μM NH29, and wherein the membrane potential was stepped from −80 mV to 100 mV for 40 seconds pulse duration (protocol shown in upper panel). The current amplitude was measured at peak current points (marked a 1 at −80 mV and a2 at +100 mV) and plotted as a function of recording time (FIGS. 15B and 15C respectively).
Chinese hamster ovary (CHO) cells were grown in Dulbecco's modified Eagle's medium (DMEM) supplemented with 2 mM glutamine, 10% fetal calf serum and antibiotics. Briefly, 40,000 cells seeded on poly-D-lysine-coated glass coverslips (13 mm diameter) in a 24-multiwell plate were transfected with pIRES-CD8 (0.5 μg) as a marker for transfection, and with Kv7.2 (0.5 μg) and Kv7.3 (0.5 μg) or TRPV1 […] or TRPV6 […].
For electrophysiology, transfected cells were visualized approximately 40 hours following transfection, using anti-CD8 antibody-coated beads. Transfection was performed using Fugene 6 (Roche, Indianapolis Ind., USA) according to the manufacturer's protocol. […]

The target of a further assay is T6, KCNQ2 mutant R201A (Homo sapiens, UniProt O43526, R201A).
T6 construct: expressed in transfected cells; host or cells: CHO cells
Put plainly: KCNQ2 S4 mutant R201A in CHO cells. The settings on record: 25 μM NH29 (25 M [sic]). The source says:
(§3) FIGS. 12A-F present the potentiating effect of NH29, an exemplary channel opener compound according to embodiments of the present invention, on selected KCNQ2 mutants. Shown are bar diagrams comparing the potentiating effect of NH29 on native KCNQ2 and KCNQ2 mutants, wherein the mutated amino acids are located at the S1-S2 helix region (FIG. 12A) or S4 helix region (FIG. 12D) and wherein the opener effect is expressed as percent of the control current in the absence of the opener. For comparison, marked as a green line, is the observed current increase of native KCNQ2 by NH29. FIGS. 12B 12C, 12E and 12F present representative traces recorded from CHO cell transfected with the KCNQ2 mutant S122A, S121A, L206C and R201A respectively, before and after external application of 25 μM of NH29 and wherein the membrane potential was stepped from −90 mV holding potential to −40 mV for 1.5 seconds pulse duration.
(§4) Voltage-clamp recordings in CHO cells were performed, using the whole-cell configuration of the patch-clamp technique. Signals were amplified using an Axopatch 200B patch-clamp amplifier (Molecular Devices, Sunnyvale, Calif.), sampled at 2 kHz and filtered at 800 Hz via a 4-pole Bessel low pass filter. […] Series resistances (3-13 MΩ) were compensated (75-90%) and periodically monitored.

Another assay has as its target T7, KCNQ2 mutant L206C (Homo sapiens, UniProt O43526, L206C).
T7 construct: expressed in transfected cells; host or cells: CHO cells
Put plainly: KCNQ2 S4 mutant L206C in CHO cells. The settings on record: 25 μM NH29.
Description: as §3, §4

Entries after “also recorded” stand apart in the source; their conditions may differ.

T5 sequence (Q9H1D0 whole entry): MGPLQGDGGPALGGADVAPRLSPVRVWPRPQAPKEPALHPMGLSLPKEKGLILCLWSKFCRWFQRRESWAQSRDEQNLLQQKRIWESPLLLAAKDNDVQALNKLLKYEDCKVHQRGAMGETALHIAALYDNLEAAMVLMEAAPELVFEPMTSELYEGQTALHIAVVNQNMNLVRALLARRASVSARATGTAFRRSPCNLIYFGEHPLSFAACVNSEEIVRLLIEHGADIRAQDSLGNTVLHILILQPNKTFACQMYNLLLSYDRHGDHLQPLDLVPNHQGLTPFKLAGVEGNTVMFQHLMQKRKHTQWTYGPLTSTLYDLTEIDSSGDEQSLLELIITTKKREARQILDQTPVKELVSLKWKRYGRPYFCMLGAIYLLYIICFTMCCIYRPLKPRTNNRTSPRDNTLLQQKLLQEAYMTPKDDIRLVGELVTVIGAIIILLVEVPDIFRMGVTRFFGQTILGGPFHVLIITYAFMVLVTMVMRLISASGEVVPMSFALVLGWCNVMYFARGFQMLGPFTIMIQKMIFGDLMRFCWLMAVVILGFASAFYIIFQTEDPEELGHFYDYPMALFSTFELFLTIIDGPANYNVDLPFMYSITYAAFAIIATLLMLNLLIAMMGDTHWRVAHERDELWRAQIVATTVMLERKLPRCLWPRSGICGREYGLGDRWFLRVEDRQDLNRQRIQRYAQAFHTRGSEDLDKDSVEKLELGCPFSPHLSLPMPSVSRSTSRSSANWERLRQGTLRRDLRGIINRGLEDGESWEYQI
T7 sequence (O43526 whole entry L206C): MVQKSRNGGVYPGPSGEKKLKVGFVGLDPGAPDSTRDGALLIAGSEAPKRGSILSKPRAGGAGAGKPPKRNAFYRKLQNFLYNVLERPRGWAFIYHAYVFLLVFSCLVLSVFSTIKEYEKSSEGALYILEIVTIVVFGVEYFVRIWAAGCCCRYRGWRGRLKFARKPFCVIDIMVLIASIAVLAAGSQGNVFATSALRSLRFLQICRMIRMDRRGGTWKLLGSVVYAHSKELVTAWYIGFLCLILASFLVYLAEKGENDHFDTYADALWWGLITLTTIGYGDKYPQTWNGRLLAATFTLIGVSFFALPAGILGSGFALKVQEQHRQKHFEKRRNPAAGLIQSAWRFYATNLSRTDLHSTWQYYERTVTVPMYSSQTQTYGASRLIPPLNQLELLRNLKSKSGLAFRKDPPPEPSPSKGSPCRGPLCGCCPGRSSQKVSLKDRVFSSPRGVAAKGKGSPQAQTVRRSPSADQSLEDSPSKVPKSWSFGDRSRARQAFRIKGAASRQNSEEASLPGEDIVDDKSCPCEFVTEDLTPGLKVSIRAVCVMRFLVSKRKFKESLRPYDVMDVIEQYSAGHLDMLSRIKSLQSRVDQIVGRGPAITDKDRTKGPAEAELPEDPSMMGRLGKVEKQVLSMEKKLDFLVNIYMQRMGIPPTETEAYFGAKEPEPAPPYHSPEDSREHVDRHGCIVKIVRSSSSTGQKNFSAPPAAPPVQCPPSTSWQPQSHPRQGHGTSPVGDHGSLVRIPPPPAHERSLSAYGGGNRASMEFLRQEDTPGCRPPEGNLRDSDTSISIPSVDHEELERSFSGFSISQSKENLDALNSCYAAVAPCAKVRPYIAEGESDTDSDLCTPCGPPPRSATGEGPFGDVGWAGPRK
T1 sequence (Q14721 whole entry): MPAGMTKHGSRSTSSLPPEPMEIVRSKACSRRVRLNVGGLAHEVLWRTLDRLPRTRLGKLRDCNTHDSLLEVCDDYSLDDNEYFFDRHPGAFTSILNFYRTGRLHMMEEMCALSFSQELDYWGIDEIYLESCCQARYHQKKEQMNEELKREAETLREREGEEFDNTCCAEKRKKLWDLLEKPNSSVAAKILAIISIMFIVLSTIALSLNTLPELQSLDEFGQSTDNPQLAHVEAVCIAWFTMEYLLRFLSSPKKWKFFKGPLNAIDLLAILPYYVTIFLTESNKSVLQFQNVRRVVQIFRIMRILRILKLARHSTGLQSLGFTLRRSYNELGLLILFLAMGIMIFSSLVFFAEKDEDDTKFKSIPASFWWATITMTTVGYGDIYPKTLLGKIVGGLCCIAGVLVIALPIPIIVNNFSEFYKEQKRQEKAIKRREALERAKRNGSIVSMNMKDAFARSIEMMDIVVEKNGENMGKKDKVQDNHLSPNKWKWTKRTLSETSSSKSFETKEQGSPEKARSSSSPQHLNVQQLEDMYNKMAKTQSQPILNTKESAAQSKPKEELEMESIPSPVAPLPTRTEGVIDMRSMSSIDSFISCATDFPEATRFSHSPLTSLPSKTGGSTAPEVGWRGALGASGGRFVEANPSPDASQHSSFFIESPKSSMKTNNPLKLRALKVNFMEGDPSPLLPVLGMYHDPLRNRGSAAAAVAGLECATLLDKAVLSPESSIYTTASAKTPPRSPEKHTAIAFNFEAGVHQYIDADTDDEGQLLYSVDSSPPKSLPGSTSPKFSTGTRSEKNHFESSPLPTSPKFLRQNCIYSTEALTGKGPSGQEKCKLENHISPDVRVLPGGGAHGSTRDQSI
T4 sequence (O35433 whole entry): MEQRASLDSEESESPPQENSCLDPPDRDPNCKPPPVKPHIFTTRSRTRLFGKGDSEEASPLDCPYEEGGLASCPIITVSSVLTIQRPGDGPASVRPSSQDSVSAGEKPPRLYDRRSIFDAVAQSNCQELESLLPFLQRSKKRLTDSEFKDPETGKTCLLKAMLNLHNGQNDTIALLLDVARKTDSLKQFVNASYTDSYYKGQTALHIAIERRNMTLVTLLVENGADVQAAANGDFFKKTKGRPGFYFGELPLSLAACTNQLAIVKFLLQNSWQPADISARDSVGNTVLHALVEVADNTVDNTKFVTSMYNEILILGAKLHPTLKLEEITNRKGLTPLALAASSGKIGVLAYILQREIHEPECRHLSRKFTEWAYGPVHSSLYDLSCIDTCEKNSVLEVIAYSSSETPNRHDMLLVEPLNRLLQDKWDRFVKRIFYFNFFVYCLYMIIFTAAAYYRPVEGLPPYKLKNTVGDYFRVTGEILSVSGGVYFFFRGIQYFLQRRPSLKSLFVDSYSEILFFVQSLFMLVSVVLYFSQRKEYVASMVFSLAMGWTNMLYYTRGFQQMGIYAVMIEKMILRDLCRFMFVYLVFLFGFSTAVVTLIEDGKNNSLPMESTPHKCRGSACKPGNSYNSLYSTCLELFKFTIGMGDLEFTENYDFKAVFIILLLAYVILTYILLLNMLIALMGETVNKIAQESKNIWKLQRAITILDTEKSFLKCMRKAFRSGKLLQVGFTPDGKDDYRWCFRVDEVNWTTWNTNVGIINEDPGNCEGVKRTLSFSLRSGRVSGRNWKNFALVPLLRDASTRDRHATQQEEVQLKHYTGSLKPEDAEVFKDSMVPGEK
T6 sequence (O43526 whole entry R201A): as the sequence (O43526 whole entry L206C) above, with R201A, C206L counted along it
T2 sequence (Q9UK17 whole entry): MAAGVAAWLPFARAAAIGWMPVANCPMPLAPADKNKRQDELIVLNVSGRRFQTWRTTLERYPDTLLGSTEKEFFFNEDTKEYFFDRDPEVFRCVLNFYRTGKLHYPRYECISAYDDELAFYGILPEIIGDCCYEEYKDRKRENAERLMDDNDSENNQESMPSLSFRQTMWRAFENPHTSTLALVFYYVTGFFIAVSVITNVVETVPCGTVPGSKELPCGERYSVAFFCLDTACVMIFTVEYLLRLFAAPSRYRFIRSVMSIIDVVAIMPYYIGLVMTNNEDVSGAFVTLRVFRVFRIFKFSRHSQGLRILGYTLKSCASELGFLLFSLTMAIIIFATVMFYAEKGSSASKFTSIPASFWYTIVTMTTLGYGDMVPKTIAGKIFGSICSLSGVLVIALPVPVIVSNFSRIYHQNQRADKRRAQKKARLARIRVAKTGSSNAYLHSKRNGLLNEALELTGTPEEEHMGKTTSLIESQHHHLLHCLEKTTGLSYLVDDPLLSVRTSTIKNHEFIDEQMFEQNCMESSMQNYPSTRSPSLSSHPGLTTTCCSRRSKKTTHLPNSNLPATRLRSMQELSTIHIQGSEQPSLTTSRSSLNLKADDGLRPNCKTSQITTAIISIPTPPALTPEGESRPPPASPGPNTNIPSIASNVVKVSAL
T3 sequence (O43525 whole entry A315T): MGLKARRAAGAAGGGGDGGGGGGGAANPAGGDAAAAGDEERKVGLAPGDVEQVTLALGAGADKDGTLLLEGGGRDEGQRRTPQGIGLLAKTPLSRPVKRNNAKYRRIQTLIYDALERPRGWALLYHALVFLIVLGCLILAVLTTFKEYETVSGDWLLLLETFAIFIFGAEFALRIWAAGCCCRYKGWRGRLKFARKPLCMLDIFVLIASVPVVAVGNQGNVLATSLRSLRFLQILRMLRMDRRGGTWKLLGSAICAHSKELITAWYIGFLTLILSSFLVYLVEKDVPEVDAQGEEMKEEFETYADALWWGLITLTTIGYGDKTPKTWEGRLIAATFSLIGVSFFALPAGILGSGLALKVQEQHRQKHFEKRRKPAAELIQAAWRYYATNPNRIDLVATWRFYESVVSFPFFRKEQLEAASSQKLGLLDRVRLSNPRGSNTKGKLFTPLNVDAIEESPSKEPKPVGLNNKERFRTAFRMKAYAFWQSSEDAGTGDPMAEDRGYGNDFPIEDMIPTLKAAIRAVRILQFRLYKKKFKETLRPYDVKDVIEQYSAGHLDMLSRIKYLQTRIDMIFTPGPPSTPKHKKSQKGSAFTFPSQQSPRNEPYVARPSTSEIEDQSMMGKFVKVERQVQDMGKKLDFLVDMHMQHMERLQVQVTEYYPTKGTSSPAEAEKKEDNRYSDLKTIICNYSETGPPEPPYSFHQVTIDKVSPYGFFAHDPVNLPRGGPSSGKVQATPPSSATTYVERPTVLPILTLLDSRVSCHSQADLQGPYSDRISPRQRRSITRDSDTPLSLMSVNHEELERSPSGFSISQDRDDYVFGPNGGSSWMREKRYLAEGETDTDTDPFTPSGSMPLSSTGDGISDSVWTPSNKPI

For `O=C(Cc1cc([N+](=O)[O-])cc([N+](=O)[O-])c1Nc1c(Cl)cc([N+](=O)[O-])cc1Cl)NCCO` [NH29], the Fold current amplitude amounted to 1.2 ± 0.09 fold on Kv 2.1 and 1.1 ± 0.04 fold at Kv 4.3. The “activation of Kv7.3 mutant A315T” value on Kv7.3 mutant A315T is reported as “could also activate Kv7.3”. The “inhibition of TRPV1 current” value in assay [1] is given as “almost completely”. In addition, the “modulation of TRPV6 current” value at TRPV6 channel is “lack of modulation; also recorded: no similar inhibition of TRPV6 was observed”. Further, on KCNQ2 mutant R201A, the “fold enhancement of current” value amounted to 1.2 fold. For the same compound, the “opener activity on S4 mutant L206C” value on KCNQ2 mutant L206C is given as “NH29 activity was preserved”.
